For one test, the system named is Smn protein. Description: Smn protein assay in cultured cells (SMN HTRF). It is filed as cell-based, human. The settings on record: 48 hours; for maximum fold (Fold) increase of Smn protein: SMA patient fibroblast cells, 7-point concentration data, fold increase relative to vehicle control (SMN HTRF); for EC1.5x (concentration giving 1.5-fold Smn protein increase): SMA Type 1 patient fibroblast cells (GM03813), 7-point concentration curve, SMN HTRF, concentration producing 1.5 times Smn protein vs DMSO vehicle control, read-out: EC1.5x for Smn protein expression. An outline of the steps:
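Smn in SMA fibroblast lysates, measured by anti-SMN HTRF after 48 h compound exposure; EC1.5x from fold change over vehicle.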

The test system of test [1] is SMN2 minigene (full length SMN2 minigene mRNA containing SMN2 exon 7). Description: SMN2 minigene mRNA splicing RT-qPCR assay in cultured cells. The note with it: HEK293H cells stably transfected with SMN2-A minigene, 24 hours, 7-point concentration curve, 1.5-fold relative to vehicle-treated cells; for EC (1.5-fold): Homo sapiens, HEK293-H, read-out: EC1.5x for production of full length SMN2 mRNA. The format is cell-based, human. The essentials:
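Full-length SMN2 minigene mRNA (exon 7 included), minigene-specific and not endogenous SMN, quantified by RT-qPCR multiplexed with GAPDH in stably transfected HEK293H cells after 24 h compound exposure at 37° C. Abundance from efficiency-corrected Ct, normalized to GAPDH and vehicle; EC1.5x reported as star bins.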
A general note: Quantitative PCR measures a nucleic acid by following its amplification.

Where a name gives a salt, the structure may show the parent alone. A value given as a limit tells only on which side of the number the result lay.

From patent USRE47689E1, “Compounds for treating spinal muscular atrophy” (PTC Therapeutics, Inc., priority 2011, dated 2019) come the findings set out here.

As to “3-(6-chloroimidazo[1,2-a]pyrimidin-2-yl)-7-(piperazin-1-yl)-2H-chromen-2-one [Compound 348]”, in the test with Smn protein, the “maximum fold (Fold) increase of Smn protein” value (“maximum fold (Fold) increase” below) is on record as “* (maximum fold increase of ≤1.2)”. The “EC1.5x for production of full length SMN2 mRNA” value in test [1] was “** (between >1 μM and ≤3 μM)”.
Regarding `CN1CCN(c2cc(F)c3cc(-c4cn5cccnc5n4)c(=O)oc3c2)CC1` [Compound 351, 5-fluoro-3-(imidazo[1,2-a]pyrimidin-2-yl)-7-(4-methylpiperazin-1-yl)-2H-chromen-2-one], the “maximum fold (Fold) increase” value in the test with Smn protein is “* (maximum fold increase of ≤1.2)”. Besides, in test [1], the EC (1.5-fold) fell in the range of 0.3 to 1 µM.
Regarding `CCN1CCN(c2ccc3cc(-c4cn5cc(C)nc(C)c5n4)c(=O)oc3c2)C[C@H]1C` [Compound 679, 3-(6,8-dimethylimidazo[1,2-a]pyrazin-2-yl)-7-[(3R)-4-ethyl-3-methylpiperazin-1-yl]-2H-chromen-2-one], in the test on Smn protein, the EC1.5x (concentration giving 1.5-fold Smn protein increase) is under 300 nM and the “maximum fold (Fold) increase” value is recorded as “***** (fold increase >1.65)”. In addition, in test [1], the EC (1.5-fold) was under 0.1 µM.
Consider `O=C(O)C(F)(F)F.O=c1oc2cc(N3CCNCC3)ccc2cc1-c1nc2cccc(C(F)(F)F)c2o1` [Compound 2, 7-(piperazin-1-yl)-3[7-(trifluoromethyl)-1,3-benzoxazol-2-yl]-2H-chromen-2-one trifluoroacetate], for which the “maximum fold (Fold) increase” value with Smn protein is reported as “* (maximum fold increase of ≤1.2)”. For the same compound, the EC (1.5-fold) in test [1] lay in the range of 0.3 to 1 µM.
With `Cc1cn2cc(-c3cc4ccc(N5CCN6CCC[C@H]6C5)cc4oc3=O)cc(F)c2n1` [Compound 983, 3-(8-fluoro-2-methylimidazo[1,2-a]pyridin-6-yl)-7-[(8aS)-hexahydropyrrolo[1,2-a]pyrazin-2(1H)-yl]-2H-chromen-2-one], in the test with Smn protein, the EC1.5x (concentration giving 1.5-fold Smn protein increase) was under 300 nM and the “maximum fold (Fold) increase” value is “***** (fold increase >1.65)”. Further, the EC (1.5-fold) in test [1] is under 0.1 µM.
In the case of `Cc1cn2cc(-c3cc4ccc(CCNCCO)cc4oc3=O)nc2c(C)n1` [Compound 870, 3-(6,8-dimethylimidazo[1,2-a]pyrazin-2-yl)-7-{2-[(2-hydroxyethyl)amino]ethyl}-2H-chromen-2-one], in the test with Smn protein, the EC1.5x (concentration giving 1.5-fold Smn protein increase) was under 300 nM; the “maximum fold (Fold) increase” value was “**** (fold increase between >1.5 and ≤1.65)”. Besides, the EC (1.5-fold) in test [1] was under 0.1 µM.
Regarding `CN1CCN(c2ccc3cc(-c4ccc5nccn5c4)c(=O)oc3c2)CC1` [Compound 978, 3-(imidazo[1,2-a]pyridin-6-yl)-7-(4-methylpiperazin-1-yl)-2H-chromen-2-one], the “maximum fold (Fold) increase” value in the test on Smn protein was “** (fold increase between >1.2 and ≤1.35)”. Besides, the EC (1.5-fold) in test [1] was in the range of 1 to 3 µM.
For the compound `Cc1cc2cc(-c3cc4ccc(N5CCN(CC6CC6)CC5)cc4oc3=O)oc2c(C)n1` [Compound 816, 7-[4-(cyclopropylmethyl)piperazin-1-yl]-3-(5,7-dimethylfuro[2,3-c]pyridin-2-yl)-2H-chromen-2-one], in the test on Smn protein, the EC1.5x (concentration giving 1.5-fold Smn protein increase) lay within 300 to 1000 nM; the “maximum fold (Fold) increase” value was “**** (fold increase between >1.5 and ≤1.65)”. The EC (1.5-fold) in test [1] was under 0.1 µM.
Regarding `Cc1cn2cc(-c3cc4ccc(N5CCN(C)[C@@H](C(C)C)C5)cc4oc3=O)nc2c(C)n1` [Compound 809, 3-(6,8-dimethylimidazo[1,2-a]pyrazin-2-yl)-7-[(3S)-4-methyl-3-(propan-2-yl)piperazin-1-yl]-2H-chromen-2-one], in the test on Smn protein, the EC1.5x (concentration giving 1.5-fold Smn protein increase) is 1000 to 3000 nM; the “maximum fold (Fold) increase” value was “**** (fold increase between >1.5 and ≤1.65)”. The EC (1.5-fold) in test [1] fell in the range of 0.3 to 1 µM.
Turning to `Cc1cn2cc(-c3cc4ccc(N5CC6CC5CN6)cc4oc3=O)cc2cn1` (stereo not shown) [Compound 744, 7-(2,5-diazabicyclo[2.2.1]hept-2-yl)-3-(3-methylpyrrolo[1,2-a]pyrazin-7-yl)-2H-chromen-2-one], in the test with Smn protein, the “maximum fold (Fold) increase” value is “** (fold increase between >1.2 and ≤1.35)”. Also, the EC (1.5-fold) in test [1] is under 0.1 µM.
As to `O=c1oc2cc(N3CCNCC3)ccc2cc1-c1ccc2nccn2c1` [Compound 980, 3-(imidazo[1,2-a]pyridin-6-yl)-7-(piperazin-1-yl)-2H-chromen-2-one], in the test on Smn protein, the “maximum fold (Fold) increase” value is “*** (fold increase between >1.35 and ≤1.5)”. Further, the EC (1.5-fold) in test [1] lay within 0.3 to 1 µM.
On to `Cc1cn2cc(-c3cc4ccc(N5CCN[C@H](C)C5)cc4oc3=O)cnc2n1` [Compound 650, 3-(2-methylimidazo[1,2-a]pyrimidin-6-yl)-7-[(3R)-3-methylpiperazin-1-yl]-2H-chromen-2-one], for which, in the test on Smn protein, the EC1.5x (concentration giving 1.5-fold Smn protein increase) is 300 to 1000 nM; the “maximum fold (Fold) increase” value is “**** (fold increase between >1.5 and ≤1.65)”. In addition, the EC (1.5-fold) in test [1] is under 0.1 µM.
Consider `O=c1oc2cc(N3CCNCC3)ccc2cc1-c1nc2c(Cl)cccc2s1` [Cpd 5, 3-(4-chloro-1,3-benzothiazol-2-yl)-7-(piperazin-1-yl)-2H-chromen-2-one hydrochloride], for which the “maximum fold (Fold) increase” value with Smn protein is “* (maximum fold increase of ≤1.2)”. For the same compound, the EC (1.5-fold) in test [1] lay in the range of 0.3 to 1 µM.
As for `Cc1cn2cc(-c3cc4ccc(N5C[C@@H]6C[C@H]5CN6)cc4oc3=O)nc2c(C)n1` [Compound 648, 7-[(1S,4S)-2,5-diazabicyclo[2.2.1]hept-2-yl]-3-(6,8-dimethylimidazo[1,2-a]pyrazin-2-yl)-2H-chromen-2-one], in the test on Smn protein, the EC1.5x (concentration giving 1.5-fold Smn protein increase) was under 300 nM and the “maximum fold (Fold) increase” value is reported as “***** (fold increase >1.65)”. The EC (1.5-fold) in test [1] is under 0.1 µM.
`C[C@H]1CN(c2ccc3cc(-c4cc5cnccc5s4)c(=O)oc3c2)CCN1` [Compound 629, 7-[(3S)-3-methylpiperazin-1-yl]-3-(thieno[3,2-c]pyridin-2-yl)-2H-chromen-2-one]: the “maximum fold (Fold) increase” value in the test with Smn protein is “* (maximum fold increase of ≤1.2)”. For the same compound, in test [1], the EC (1.5-fold) lay within 0.3 to 1 µM.
In the case of `Cc1cn2cc(-c3cc4c(F)cc(N5CCN[C@@H](C)C5)cc4oc3=O)nc2cn1` [Compound 593, 5-fluoro-3-(6-methylimidazo[1,2-a]pyrazin-2-yl)-7-[(3S)-3-methylpiperazin-1-yl]-2H-chromen-2-one], in the test with Smn protein, the EC1.5x (concentration giving 1.5-fold Smn protein increase) is under 300 nM and the “maximum fold (Fold) increase” value is reported as “***** (fold increase >1.65)”. In addition, the EC (1.5-fold) in test [1] is under 0.1 µM.
As to `O=c1oc2cc(N3CCN4CCC[C@H]4C3)ccc2cc1-c1ccc2nccn2c1` [Compound 979, 7-[(8aS)-hexahydropyrrolo[1,2-a]pyrazin-2(1H)-yl]-3-(imidazo[1,2-a]pyridin-6-yl)-2H-chromen-2-one], the “maximum fold (Fold) increase” value in the test on Smn protein is “** (fold increase between >1.2 and ≤1.35)”. For the same compound, the EC (1.5-fold) in test [1] was 1 to 3 µM.
Turning to `Cc1cn2cc(-c3cc4ccc(N5CCN[C@@H](C)C5)cc4oc3=O)ccc2n1` [Compound 664, 3-(2-methylimidazo[1,2-a]pyridin-6-yl)-7-[(3S)-3-methylpiperazin-1-yl]-2H-chromen-2-one], in the test with Smn protein, the EC1.5x (concentration giving 1.5-fold Smn protein increase) is under 300 nM and the “maximum fold (Fold) increase” value is “***** (fold increase >1.65)”. In test [1], the EC (1.5-fold) is under 0.1 µM.
In the case of `Cc1cn2cc(-c3cc4ccc(N5C[C@H]6CCCN(C)[C@H]6C5)cc4oc3=O)nc2c(C)n1` [Compound 782, 3-(6,8-dimethylimidazo[1,2-a]pyrazin-2-yl)-7-[(4aR,7aR)-1-methyloctahydro-6H-pyrrolo[3,4-b]pyridin-6-yl]-2H-chromen-2-one], in the test with Smn protein, the EC1.5x (concentration giving 1.5-fold Smn protein increase) is under 300 nM; the “maximum fold (Fold) increase” value was “**** (fold increase between >1.5 and ≤1.65)”. The “EC1.5x for production of full length SMN2 mRNA” value in test [1] was “***** (EC1.5x≤0.1 μM)”.
In the case of `Cc1cn2cc(-c3cc4ccc(C5CCN(C6COC6)CC5)cc4oc3=O)nc2cn1` [Compound 878, 3-(6-methylimidazo[1,2-a]pyrazin-2-yl)-7-[1-(oxetan-3-yl)piperidin-4-yl]-2H-chromen-2-one], in the test with Smn protein, the EC1.5x (concentration giving 1.5-fold Smn protein increase) lay in the range of 300 to 1000 nM and the “maximum fold (Fold) increase” value was “***** (fold increase >1.65)”. In test [1], the EC (1.5-fold) was under 0.1 µM.
Regarding `O=c1oc2cc(N3CCNCC3)ccc2cc1-c1cn2cc(Cl)ccc2n1` [Compound 71, 3-(6-chloroimidazo[1,2-a]pyridin-2-yl)-7-(piperazin-1-yl)-2H-chromen-2-one], in the test on Smn protein, the “maximum fold (Fold) increase” value was “** (fold increase between >1.2 and ≤1.35)”. For the same compound, the EC (1.5-fold) in test [1] was in the range of 1 to 3 µM.
Take `Cc1cn2cc(-c3cc4ccc(N[C@H]5CCNC5)cc4oc3=O)nc2c(C)n1` [Cpd 563, 3-(6,8-dimethylimidazo[1,2-a]pyrazin-2-yl)-7-[(3S)-pyrrolidin-3-ylamino]-2H-chromen-2-one]: in the test on Smn protein, the EC1.5x (concentration giving 1.5-fold Smn protein increase) was under 300 nM and the “maximum fold (Fold) increase” value was “***** (fold increase >1.65)”. The EC (1.5-fold) in test [1] is under 0.1 µM.
`CSc1nccn2cc(-c3cc4ccc(N5CCN(C)CC5)cc4oc3=O)nc12` [Compound 399, 7-(4-methylpiperazin-1-yl)-3-[8-(methylsulfanyl)imidazo[1,2-a]pyrazin-2-yl]-2H-chromen-2-one]: in the test on Smn protein, the “maximum fold (Fold) increase” value is listed as “* (maximum fold increase of ≤1.2)”. For the same compound, the EC (1.5-fold) in test [1] was in the range of 3 to 30 µM.
